Source: patent US10745741B2, “Cell barcoding in microfluidics” (EUROPEAN MOLECULAR BIOLOGY LABORATORY, priority 2015, dated 2020)

What was measured:
p21 = p21 expression by qPCR on barcoded mRNA from drug-treated MCF-7 cells in droplets; assay type: cell-based; settings: 12 h at 37° C., barcode 2B, qPCR (FIG. 8A)
Text: (§1) Barcoding cellular mRNA according to particular drug treatments. The combinatorial microfluidic chip was used to generate droplets containing the following components: • MCF-7 cells+media+ligation mix+barcode fragment BC-1+barcode fragment BC-A+Thiostrepton • MCF-7 cells+media+ligation mix+barcode fragment BC-2+barcode fragment BC-B+Doxorubicin treated cells • MCF-7 cells+media+ligation mix+barcode fragment BC-1+barcode fragment BC-B The resulting emulsions were collected separately in droplet traps (as shown in Hu H et al., Lab Chip 2015) for 12 h at 37° C., before cell lysis was achieved by repeated freezing and thawing. Then the emulsion was broken and hybridized cellular mRNA was purified using streptaviding-coated beads. This step ensures that only mRNA hybridized to ligated barcode combinations (e.g. 1A for the Thiostrepton sample) is isolated. Subsequently reverse transcription was carried out and the abundance of target genes was assessed by qPCR using primers specific for the target genes. Barcode fragment combination is shown exemplary for fragments BC-A and BC-1 in FIG. 7, as well as the reverse transcription and qPCR using the barcode. Expression levels of p21 (FIG. 8A) and FoxM1 (FIG. 8B) were normalized to Actb expression and the fold change in expression was determined between treated and untreated cells.

FoxM1 = FoxM1 expression by qPCR on barcoded mRNA from drug-treated MCF-7 cells in droplets; assay type: cell-based; settings: 12 h at 37° C., barcode combination 1A, qPCR (FIG. 8B)
Text: as §1

Row | SMILES | p21 expression normalized to Actb expression, fold change between treated and untreated cells (p21) | FoxM1 expression normalized to Actb expression, fold change between treated and untreated cells (FoxM1)
1 | COc1cccc2c1C(=O)c1c(O)c3c(c(O)c1C2=O)C[C@@](O)(C(=O)CO)C[C@@H]3O[C@H]1C[C@H](N)[C@H](O)[C@H](C)O1 [Doxorubicin] | significant upregulation | 
2 | C=C(NC(=O)C(=C)NC(=O)c1csc(C2=N[C@@H]3c4csc(n4)[C@H]4NC(=O)c5csc(n5)[C@H]([C@](C)(O)[C@@H](C)O)NC(=O)[C@H]5CSC(=N5)/C(=C/C)NC(=O)[C@H]([C@@H](C)O)NC(=O)c5csc(n5)[C@]3(CC2)NC(=O)[C@H](C)NC(=O)C(=C)NC(=O)[C@H](C)NC(=O)[C@H]([C@@H](C)CC)N[C@@H]2C=Cc3c([C@H](C)O)cc(nc3[C@H]2O)C(=O)O[C@@H]4C)n1)C(N)=O [Thiostrepton] |  | significant downregulation
